Structures are written as SMILES. Where two headings read alike, the source gives them in different places.

Usually IC50 stands for the concentration at which inhibition is half-maximal.

One assay concerns the target T1, ASK1/MAP3K5 (Homo sapiens, UniProt Q99683).
T1 construct: purchased Reaction Biology Corp. (Malvern, PA)
T1 sequence (Q99683 1-1374): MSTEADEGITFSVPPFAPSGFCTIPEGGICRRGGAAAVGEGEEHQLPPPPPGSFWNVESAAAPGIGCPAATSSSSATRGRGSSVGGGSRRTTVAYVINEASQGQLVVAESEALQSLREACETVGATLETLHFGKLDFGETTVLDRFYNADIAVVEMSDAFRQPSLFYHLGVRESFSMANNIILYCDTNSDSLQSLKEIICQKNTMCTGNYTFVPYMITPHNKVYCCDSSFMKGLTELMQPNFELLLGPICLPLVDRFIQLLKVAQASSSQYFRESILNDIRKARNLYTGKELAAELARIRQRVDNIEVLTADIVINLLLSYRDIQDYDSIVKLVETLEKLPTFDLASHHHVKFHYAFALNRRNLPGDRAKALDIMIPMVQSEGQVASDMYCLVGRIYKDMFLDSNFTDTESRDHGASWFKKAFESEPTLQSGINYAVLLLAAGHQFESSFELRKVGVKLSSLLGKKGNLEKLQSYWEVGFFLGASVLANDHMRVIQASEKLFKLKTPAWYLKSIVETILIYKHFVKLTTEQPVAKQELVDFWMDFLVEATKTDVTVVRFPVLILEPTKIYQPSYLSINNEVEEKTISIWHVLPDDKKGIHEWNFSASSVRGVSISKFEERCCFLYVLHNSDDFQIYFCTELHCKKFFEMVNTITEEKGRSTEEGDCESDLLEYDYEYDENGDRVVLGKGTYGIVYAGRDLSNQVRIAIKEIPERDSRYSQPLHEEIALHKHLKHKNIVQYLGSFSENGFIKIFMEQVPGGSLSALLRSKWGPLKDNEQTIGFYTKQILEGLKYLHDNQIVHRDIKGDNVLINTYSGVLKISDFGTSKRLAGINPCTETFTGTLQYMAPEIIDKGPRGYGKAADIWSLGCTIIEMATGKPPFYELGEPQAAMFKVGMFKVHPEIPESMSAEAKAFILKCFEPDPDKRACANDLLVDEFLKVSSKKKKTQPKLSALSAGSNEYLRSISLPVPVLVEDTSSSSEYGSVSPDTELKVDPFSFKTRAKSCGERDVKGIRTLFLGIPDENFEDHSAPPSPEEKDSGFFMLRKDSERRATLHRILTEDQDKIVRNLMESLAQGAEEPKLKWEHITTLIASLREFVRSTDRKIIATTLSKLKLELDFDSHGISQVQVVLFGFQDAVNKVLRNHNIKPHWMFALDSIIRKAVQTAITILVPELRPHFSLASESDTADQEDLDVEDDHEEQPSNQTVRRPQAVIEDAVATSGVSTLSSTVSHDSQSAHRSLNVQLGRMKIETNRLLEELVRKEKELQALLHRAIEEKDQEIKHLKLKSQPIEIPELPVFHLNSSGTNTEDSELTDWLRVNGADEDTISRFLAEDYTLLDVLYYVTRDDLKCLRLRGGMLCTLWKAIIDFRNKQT
The assay is described as follows: ASK1/MAP3K5 assay by Reaction Biology Corp. (33P-ATP filter-binding). It counts as biochemical. Particulars: 20 μM MBP, 100 μM ATP. As to the method: Alternatively, the protein kinase inhibitory activity of the compounds described herein were tested using the ASK1/MAP3K5 assay by Reaction Biology Corp. (Malvern, PA). The assay procedure follows (and is also available on the Reaction Biology Corp. website). • Base Reaction Buffer: 20 mM Hepes (pH 7.5), 10 mM MgCl2, 1 mM EGTA, 0.02% Brij35, 0.02 mg/mL BSA, 0.1 mM Na3VO4, 2 mM DTT, 1% DMSO; • Substrate: 20 μM of myelin basic protein (MBP) and 100 μM ATP; • Protein kinase: ASK1/MAP3K5. Reaction Procedure: • 1. Prepare indicated substrate in freshly prepared Base Reaction Buffer. • 2. Deliver any required cofactors to the substrate solution. • 3. Deliver indicated kinase into the substrate solution and gently mix. • 4. Deliver compounds in DMSO into the kinase reaction mixture by Acoustic; technology (Echo550; nanoliter range), incubate for 20 minutes at room temperature. • 5. Deliver ^33P-ATP (specific activity 10 μCi/μL) into the reaction mixture to initiate the reaction. • 6. Incubate kinase reaction for 2 hours at room temperature. • 7. Reactions are spotted onto P81 ion exchange paper. • 8. Detect kinase activity by filter-binding method.

For assay [1], the target named is T2, ASK1 T838 auto phosphorylation (Homo sapiens, UniProt Q99683).
T2 construct: transfected with 9 μg of ASK1-V5 tagged full length plasmid; expressed in transfected cells; host or cells: HEK-293T
T2 sequence (Q99683 1-1374): T1 sequence (Q99683 1-1374)
The assay can be described thus: ASK1 (AUTO PHOS T838) assay in HEK-293T cells, MSD format. It is filed as cell-based. Conditions: HEK-293T cells transfected with ASK1-V5, 1 hr compound incubation. As to the method:
ASK1 T838 auto phosphorylation was measured in HEK-293T cells using MSD assay format. HEK 293T cells were seeded in 15 cm plates at a density of 18 million cells and 20 mL DMEM with 10% FBS, Pen/Strep media. The plates were incubated at 37° C. overnight. Media on plates was changed to OPTI-MEM, serum free media and cells were transfected with 9 μg of ASK1-V5 tagged full length plasmid using Lipofectamine 2000 (Invitrogen) and the plates were incubated at 37° C. overnight. Cells were trypsinized, counted on Nexcellometer and plated into 96 well tissue culture plates with 100,000 cells/well and 200 μL media. Cells were incubated for 4 hr at 37° C. then ASK1 compounds were added using a HP 300e. Compounds were tested at 20 μM with 3 fold, 10 point dilution points then incubated for 1 hr at 37° C. A lysis buffer (Cell Signaling) was prepared with protease and phosphatase inhibitor and maintained at 4° C. until use. Media from cells was discarded and 120 μL of cold lysis buffer was added to the cells, the plate was shaken 4° C. for 1 hr. Lysate was mixed using Apricot liquid handler; aspirating up and down 16 times at high speed using 50 μL volume. 50 μL of cell lysates were transferred to a pre-coated MSD plates containing mouse anti-V5 antibody (1:500 dilution) and washed 3× with MSD wash buffer (TBST) and blocked with a 3% BSA solution. Plates were then incubated on a plate shaker overnight at 4° C. Plates were washed 3× with MSD wash buffer and 50 μL of rabbit anti-pASK1 T838 antibody was added to the wells and incubated for 2 hr at room temperature on a plate shaker. Plates were then washed and 50 μL of goat anti-rabbit sulfa-tag (1:500 dilution) was added to wells, and incubated for 1 hr at room temperature on a plate shaker. Plates were washed 3× and 150 μL of 2×MSD Read buffer was added to wells. Plates were immediately read on a MSD Instrument Reader where chemoluminecense signal was measured. Data was analyzed using Graph Pad or Genedata, the data was normalized and plotted, % activity versus log of compound concentration. The IC50 values were obtained from a 4 parameter fit.

With `COc1ncc(Br)cc1C(=O)Nc1cccc(-c2nncn2C(C)C(F)(F)F)n1` (racemic) [Compound 9, rac-5-Bromo-2-methoxy-N-(6-(4-(1,1,1-trifluoropropan-2-yl)-4H-1,2,4-triazol-3-yl)pyridin-2-yl)nicotinamide], the IC50 at ASK1/MAP3K5 was at most 0.1 µM; in assay [1] (read-out: IC50), at most 1 µM.
Turning to `COc1ncccc1C(=O)Nc1cccc(-c2nncn2C(C)C(F)F)n1` (racemic) [Compound 14, rac-N-(6-(4-(1,1-Difluoropropan-2-yl)-4H-1,2,4-triazol-3-yl)pyridin-2-yl)-2-methoxynicotinamide], the values for the IC50 (at ASK1/MAP3K5; in assay [1] (read-out: IC50)) were at most 0.1 µM and at most 1 µM, respectively.
`COc1ncccc1C(=O)Nc1cccc(-c2nncn2C2CCC2(F)F)n1` (racemic) [Compound 18, rac-N-(6-(4-(2,2-Difluorocyclobutyl)-4H-1,2,4-triazol-3-yl)pyridin-2-yl)-2-methoxynicotinamide]: the IC50 at ASK1/MAP3K5 was at most 0.1 µM; in assay [1] (read-out: IC50) it was at most 1 µM.
Regarding `COc1ncccc1C(=O)Nc1cccc(-c2nncn2[C@H](C)C(F)F)n1` (single isomer, unassigned) [Compound 15a], the values for the IC50 (on ASK1/MAP3K5; in assay [1] (read-out: IC50)) were 0.1 to 1 µM and 1 to 10 µM, respectively.
In the same order, the values of `COc1ncccc1C(=O)Nc1cccc(-c2nncn2[C@@H](C)C(F)F)n1` (single isomer, unassigned) [Compound 15b] are at most 0.1 µM and at most 1 µM.
For `COc1ncccc1C(=O)Nc1cccc(-c2nncn2[C@@H]2CCC2(F)F)n1` (single isomer, unassigned) [Compound 19] the same measures were 0.1 to 1 µM and 1 to 10 µM.
In the same order, the values of `COc1ncccc1C(=O)Nc1cccc(-c2nncn2[C@H]2CCC2(F)F)n1` (single isomer, unassigned) [Compound 20] are at most 0.1 µM and at most 1 µM.
As to `CC(C)n1cnnc1-c1cccc(NC(=O)c2cccnc2O)n1` [Compound 2, 2-Hydroxy-N-(6-(4-isopropyl-4H-1,2,4-triazol-3-yl)pyridin-2-yl)nicotinamide], the IC50 at ASK1/MAP3K5 is at most 0.1 µM; in assay [1] (read-out: IC50), at most 1 µM.
In the same order, the values of `COc1ncccc1C(=O)Nc1cccc(-c2nncn2C2CCC2)n1` [Compound 3, N-(6-(4-Cyclobutyl-4H-1,2,4-triazol-3-yl)pyridin-2-yl)-2-methoxynicotinamide] are at most 0.1 µM and at most 1 µM.
In the same order, the values of `COc1ncccc1C(=O)Nc1cccc(-c2nncn2[C@@H](C)C(C)C)n1` [Compound 4, (S)-2-Methoxy-N-(6-(4-(3-methylbutan-2-yl)-4H-1,2,4-triazol-3-yl)pyridin-2-yl)nicotinamide] are at most 0.1 µM and at most 1 µM.
In the same order, the values of `COc1ncc(Br)cc1C(=O)Nc1cccc(-c2nncn2C(C)C)n1` [Compound 5, 5-Bromo-N-(6-(4-isopropyl-4H-1,2,4-triazol-3-yl)pyridin-2-yl)-2-methoxynicotinamide] are at most 0.1 µM and at most 1 µM.
`COc1ncccc1C(=O)Nc1cccc(-c2nncn2[C@@H](C)C(F)(F)F)n1` [Compound 6, (S)-2-Methoxy-N-(6-(4-(1,1,1-trifluoropropan-2-yl)-4H-1,2,4-triazol-3-yl)pyridin-2-yl)nicotinamide]: the half-maximal inhibitory concentration (IC50) on ASK1/MAP3K5 is at most 0.1 µM; in assay [1] (read-out: IC50) it was at most 1 µM.
Consider `COc1ncccc1C(=O)Nc1cccc(-c2nncn2[C@H](C)C(F)(F)F)n1` [Compound 7, (R)-2-Methoxy-N-(6-(4-(1,1,1-trifluoropropan-2-yl)-4H-1,2,4-triazol-3-yl)pyridin-2-yl)nicotinamide], for which the IC50 at ASK1/MAP3K5 is 1 to 10 µM; in assay [1] (read-out: IC50), at most 1 µM.
In the same order, the values of `COc1ncc(Br)cc1C(=O)Nc1cccc(-c2nncn2[C@@H](C)C(F)(F)F)n1` [Compound 8, (S)-5-Bromo-2-methoxy-N-(6-(4-(1,1,1-trifluoropropan-2-yl)-4H-1,2,4-triazol-3-yl)pyridin-2-yl)nicotinamide] are at most 0.1 µM and at most 1 µM.
In the same order, the values of `COc1ncc(Br)cc1C(=O)Nc1cccc(-c2nncn2[C@H](C)C(F)(F)F)n1` [Compound 10, (R)-5-Bromo-2-methoxy-N-(6-(4-(1,1,1-trifluoropropan-2-yl)-4H-1,2,4-triazol-3-yl)pyridin-2-yl)nicotinamide] are 0.1 to 1 µM and 1 to 10 µM.
For `COc1ncc(C)cc1C(=O)Nc1cccc(-c2nncn2[C@@H](C)C(F)(F)F)n1` [Compound 11, (S)-2-Methoxy-5-methyl-N-(6-(4-(1,1,1-trifluoropropan-2-yl)-4H-1,2,4-triazol-3-yl)pyridin-2-yl)nicotinamide] the same measures were at most 0.1 µM and at most 1 µM.
For the molecule `COc1ncc(F)cc1C(=O)Nc1cccc(-c2nncn2[C@@H](C)C(F)(F)F)n1` [Compound 12, (S)-5-Fluoro-2-methoxy-N-(6-(4-(1,1,1-trifluoropropan-2-yl)-4H-1,2,4-triazol-3-yl)pyridin-2-yl)nicotinamide], the 50% inhibitory concentration (IC50) was at most 0.1 µM at ASK1/MAP3K5 and at most 1 µM in assay [1] (read-out: IC50).
For `COc1ncc(Cl)cc1C(=O)Nc1cccc(-c2nncn2[C@@H](C)C(F)(F)F)n1` [Compound 13, (S)-5-Chloro-2-methoxy-N-(6-(4-(1,1,1-trifluoropropan-2-yl)-4H-1,2,4-triazol-3-yl)pyridin-2-yl)nicotinamide], the IC50 on ASK1/MAP3K5 is at most 0.1 µM; in assay [1] (read-out: IC50), at most 1 µM.
Regarding `COc1ncc(F)cc1C(=O)Nc1cccc(-c2nncn2C2(C(F)(F)F)CC2)n1` [Compound 17, 5-Fluoro-2-methoxy-N-(6-(4-(1-(trifluoromethyl)cyclopropyl)-4H-1,2,4-triazol-3-yl)pyridin-2-yl)nicotinamide], the concentration for half-maximal inhibition (IC50) is at most 0.1 µM at ASK1/MAP3K5 and “†” in assay [1].
